Measurements as given in patent US10265327B2, “V1A antagonists to treat phase shift sleep disorders” (Hoffmann-La Roche Inc., priority 2013, dated 2019).
“Also recorded” adds a separate entry of the source.

System: C57BL/6J mice
Assay: Jet-lag test: behavioural re-entrainment to 6 h phase advance of the LD cycle
Type: in vivo, mouse
Conditions: for days to total behavioural re-entrainment after the 6 h phase shift: mean ± SEM, n=5
Protocol: In all studies described below, male young-adult C57BL/6J mice (4 weeks old at the beginning of experiments) were used. Animals were exposed to a light-dark cycle (LD) 12:12 (lights on from 8 h to 20 h geographical time; light intensity at 200 lux; during dark period dim red light of 5 lux) in individual cages with food and water ad libitum and temperature (22±1° C.) and humidity (55%±5%) controlled. LD cycle was represented as zeitgeber times (ZT) where ZT0 represents the lights on and ZT12 lights off. When animals were exposed to constant darkness conditions (DD), circadian times (CT) were used as time point references, where CT12 corresponds to activity onset.
To evaluate the effects of the V1a antagonist trans-8-chloro-5-methyl-1-(4-pyridin-2-yloxycyclohexyl)-4,6-dihydro-[1,2,4]triazolo[4,3-a][1,4]benzodiazepine on light synchronization of behavioural circadian rhythms, a jet-lag protocol of 6 h phase shift was used. After being under a LD cycle 12 h/12 h (for at least 10 days), mice were exposed to a 6 -h phase advance of the light-dark cycle (first “jet-lag” test, advance shift) and to the administration of vehicle or 30 mg/kg of the V1a antagonist trans-8-chloro-5-methyl-1-(4-pyridin-2-yloxycyclohexyl)-4,6-dihydro-[1,2,4]triazolo[4,3-a][1,4]benzodiazepine. On the day of the shift, the time of lights off was phase-advanced by 6 h. Here we used three groups of animals: a sham group (Group 1, n=3), animals in which the cannula was introduced in the oral cavity without any solution delivery; a vehicle group (Group 2, n=4), which received vehicle, and a 30 mg/kg trans-8-chloro-5-methyl-1-(4-pyridin-2-yloxycyclohexyl)-4,6-dihydro-[1,2,4]triazolo[4,3-a][1,4]benzodiazepine group (Group 3, n=5). All manipulations were at ZT6 (6 h after lights on) on the last LD cycle before the 6 h phase advance.
In a second experiment, using naive animals, a second jet-lag test was evaluated. Thus, using a new group of male mice, the effects of 30 mg/kg trans-8-chloro-5-methyl-1-(4-pyridin-2-yloxycyclohexyl)-4,6-dihydro-[1,2,4]triazolo[4,3-a][1,4]benzodiazepine on the re-synchronization to a 6 h phase advance of the LD cycle were tested. Animals under a LD cycle 12 h/12 h (for at least 10 days) were exposed to a phase advance of 6 h of the LD cycle and to the administration of vehicle or 30 mg/kg of the V1a antagonist trans-8-chloro-5-methyl-1-(4-pyridin-2-yloxycyclohexyl)-4,6-dihydro-[1,2,4]triazolo[4,3 -a][1,4]benzodiazepine at ZT/CT6. Similarly to the previous experiment, three groups of animals were used: a sham group (Group 1, n=3), animals in which the cannula was introduced in the oral cavity without any solution delivery; a vehicle group (Group 2, n=4) which received vehicle, and a 30 mg/kg trans-8-chloro-5-methyl-1 -(4-pyridin-2-yloxycyclohexyl)-4,6-dihydro-[1,2,4]triazolo[4,3 -a][1,4]benzodiazepine group (Group 3, n=5).
The locomotor activity rhythms were measured using infra-red detectors on the top of the cages and/or running wheels.
Re-entrainment (jet-lag tests): For 6 h phase-shift (jet-lag protocol) the number of days after the shift for total re-entrainment was quantified, considering both the onset and offset of activity. The onsets and offsets of activity were identified automatically using ClockLab software. Thus, full resynchronization to a new LD cycle, after 6-hour phase shifts of the time of lights off, was considered when activity onset took place at the new time of lights off ±30 minutes. The number of days (transitory cycles) required to re-synchronize was calculated for each mouse. The speed of re-entrainment was evaluated calculating the onset of activity and the advance of it, in hours, daily. To evaluate the effects of manipulations on locomotion, the locomotor activity changes from 0 to 6 h after each treatment were quantified in 30 min intervals (see activity profiles determination).
Values in all experiments are means ±SEM. […]

## CN1Cc2cc(Cl)ccc2-n2c(nnc2[C@H]2CC[C@H](Oc3ccccn3)CC2)C1 [Example 1, trans-8-chloro-5-methyl-1-(4-pyridin-2-yloxycyclohexyl)-4,6-dihydro-[1,2,4]triazolo[4,3-a][1,4]benzodiazepine]
Both jet-lag experiments, 30 mg/kg
  re-entrainment of the circadian clock to a new LD cycle (overall conclusion): accelerates the re-entrainment
jet-lag test 1, 30 mg/kg at ZT6, 0 to 6 h after treatment
  locomotor activity induced by manipulations: not significantly different between groups
jet-lag test 1, 30 mg/kg at ZT6, first 5 days after the shift, 30 mg/kg
  daily adjustment of onset of activity to the LD cycle (speed of re-entrainment): much more rapid daily adjustment; also recorded: significantly faster re-entrainment
jet-lag test 1, 30 mg/kg oral at ZT6
  days to total behavioural re-entrainment after the 6 h phase shift: 3.2 ± 0.33 days
Second jet-lag test, naive mice, 30 mg/kg at ZT/CT6
  increase in locomotion induced by manipulations: not significantly different between groups
Second jet-lag test, naive mice, 30 mg/kg at ZT/CT6, first 4 days after the shift, 30 mg/kg
  daily adjustment of onset of activity to the LD cycle (speed of re-entrainment): much more rapid daily adjustment; also recorded: significantly faster re-entrainment
Second jet-lag test, naive mice, 30 mg/kg oral at ZT/CT6
  days to total behavioural re-entrainment after the 6 h phase shift: 3.4 ± 0.24 days
